Results from PMC12282092, “Discovery of a non-nucleoside inhibitor that binds to a novel site in the palm domain of the respiratory syncytial virus RNA-dependent RNA polymerase” (Journal of Virology, 2025).
Like-named read-outs stand apart in the source and are kept apart here.

Key:
[1] = system: RSV-B/Wash/18537; assay: microbe, parasite or virus in culture; type: cell-based; details: human respiratory syncytial virus; RSV-B/Wash/18537, HeLa cells, RT-qPCR
[2] = target: T1, RSV L+P (Human respiratory syncytial virus A, UniProt P28887); assay: Mode of inhibition by progress curve analysis; type: biochemical
T1 construct: Biochemical activity of 1 and 22 against full-length RSV L+P; Twin-Strep-tag (N); made in house; host or cells: Sf9 insect cells (baculovirus, pFastBac Dual)
Method: To determine the mode of inhibition, progress curve analysis was carried out with the full-length complex.

[3] = target: T2, RSV L+P-JNJ-7184 complex (Human respiratory syncytial virus A, UniProt P28887); assay: SPR A-B-A competition with connector domain binder JNJ-7184; type: binding; details: 150 nM JNJ-7184 competitor
T2 construct: a biophysical SPR assay was established using full-length RSV L+P complex; Twin-Strep-tag (N); made in house; host or cells: Sf9 insect cells (baculovirus)
Method: (§1) Here, the competitor was held at a constant concentration (60 nM for JNJ-8003 and 150 nM for JNJ-7184) during baseline acquisition, association, and dissociation of the test compound.
(§2) The Biacore A-B-A injection method was used to assess compound binding competition. RSVpol was immobilized as above. […] Dissociation of any bound 22 was then measured for 500 s in the presence of a competitor. The temperature was 25°C, and the flow rate was kept at 30 µL/min.

[4] = target: T1, RSV L+P; assay: Yonetani-Theorell mutual exclusivity analysis; type: biochemical
Method: Here, matrix titrations of the two inhibitors were carried out, and initial rates were determined for each inhibitor combination. Data were fitted to the Yonetani-Theorell equation (Supp. equation S1) to determine the interaction constant, γ. […] When γ > 1, binding is antagonistic, and as γ approaches infinity, the ligands are considered mutually exclusive. Conversely, when γ < 1, binding is synergistic.

[5] = target: T1, RSV L+P; assay: Single-nucleotide incorporation (primer extension) assays; type: biochemical; details: 50 µM 22, primers AC, ACG, ACGA, ACGAG
Method: Reactions were initiated by the addition of 100 nM [α-^32P]NTP (3,000 Ci/mmol) tracer and run for an additional 30 min before quenching with an equal volume of gel loading buffer (90% formamide, 50 mM EDTA, 0.05% Xylene Cyanol and Bromophenol Blue). Gel images were obtained and processed as described for the de novo assay, and data were normalized to untreated controls to determine percent inhibition.

[6] = system: rgRSV224 virus (RSV A2) in HeLa cells; assay: HeLa cell rgRSV224 eGFP reporter viral proliferation assay; type: cell-based; details: RSV eGFP phenotypic assay in HeLa cells; for EC50: MOI 1, 72 h, n ≥ 2, read-out: Cellular EC50
Method: (§3) Compound serial dilutions (9 point, fourfold) were prepared in DMSO, and 200 nL was transferred to black, 384-well, clear-bottom microtiter plates (Corning, Amsterdam, The Netherlands) via acoustic drop ejection ([36], [50]). […] Then, 20 µL of a HeLa cell suspension (3,000 cells/well) was added with a Multidrop Combi, and cells were incubated at 37°C in a 5% CO2 atmosphere. After 72 h, GFP expression was quantified using an EnVision Multimode Plate Reader (Perkin Elmer, Zaventem, Belgium), and data were normalized to untreated and media-only (no virus) controls. Cytotoxicity was determined in parallel using the ATPlite kit (Perkin Elmer, Zaventem, Belgium). Luminescence was measured in white, 384-well microtiter plates (Corning) on a ViewLux uHTS Microplate Imager apparatus (PerkinElmer, Zaventem, Belgium), and cellular ATP content was quantified by normalizing to untreated and media-only (no cell) controls. […] Figures were prepared with GraphPad Prism.

[7] = APC-126 cytotoxicity assay (CellTiter-Glo); type: cell-based; details: hamster; APC-126, 72 h; read-out: Replicon CC50
Method: (§4) A proprietary BHK-based cell line, APC-126, harboring the RSV replicon, was obtained from Apath (New York, USA) and cultured in DMEM/Ham’s F-12 50/50, supplemented with 10% (vol/vol) FBS (Gibco), 1% (vol/vol) penicillin-streptomycin (Gibco), 1% (vol/vol) MEM non-essential amino acids (Gibco), 5% (vol/vol) Tryptose Phosphate Broth (Sigma-Aldrich), and 10 µg/mL blasticidin (Invitrogen) at 37°C in a humidified 5% CO2 incubator ([36]). Cells were plated (3,500 cells/well) in white, 96-well, clear-bottom plates (Corning) and incubated for 24 h. Compound serial dilutions (9 point, threefold) were prepared in DMSO and diluted 10-fold in culture media before treating cells (final [DMSO] = 1% [vol/vol]). […] In parallel, cytotoxicity was measured using CellTiter-Glo (Promega) under the same conditions. […] Figures were prepared with GraphPad Prism.

[8] = system: RSV-A/A2; assay: microbe, parasite or virus in culture; type: cell-based; details: human respiratory syncytial virus; RSV-A/A2, HeLa cells, RT-qPCR
[9] = system: HeLa cells; details: HeLa cytotoxicity
[10] = in vitro; details: human
[11] = target: T1, RSV L+P; assay: Pyrophosphate luminescence detection assay, full-length RSV L+P; type: biochemical; details: pyrophosphate luminescence detection assay
Method: Working solutions (3×) of RSV L+P (60 nM), substrate (30 µM each of GTP, CTP, UTP, 300 µM ATPαS [Jena Bioscience], 15 µM RNA template TrC-25), detection reagents (6 nM Luciferase, 900 µM luciferin, 3 U/µL ATP Sulfurylase [BioVision], 15 µM adenosine phosphosulfate [APS], 3 mM coenzyme A), were prepared in complete assay buffer. Compounds were dissolved in dimethyl sulfoxide (DMSO) and dispensed to white, 1536-well cyclic olefin copolymer (COC) plates (Corning, 9145BC) using an Echo Acoustic Liquid Handler (Beckman Coulter, San Jose, CA). Substrate (1 µL) and detection reagents (1 µL) were dispensed using a Multidrop Combi Dispenser (ThermoFisher, Waltham, MA), followed by enzyme (1 µL) to initiate the reaction. Final screening concentrations were 20 nM RSV L+P, 10 µM GTP/CTP/UTP, 100 µM ATPαS, 5 µM TrC-25, 2 nM Luciferase (Promega), 300 µM luciferin (Promega), 1 U/µL ATP sulfurylase, 5 µM APS, and 1 mM CoA. […] Luminescence was detected using the PHERAStar FSX (BMG Labtech, Ortenberg, Germany).

[12] = system: RSV-B/05_036549; assay: microbe, parasite or virus in culture; type: cell-based; details: human respiratory syncytial virus; RSV-B/05_036549, HeLa cells, RT-qPCR
[13] = target: human mitochondrial RNA polymerase (POLRMT) (Homo sapiens, UniProt O00411); assay: POLRMT assay
[14] = target: T3, RSV L+P-JNJ-8003 complex (Human respiratory syncytial virus A, UniProt P28887); assay: SPR A-B-A competition with capping domain binder JNJ-8003; type: binding; details: 60 nM JNJ-8003 competitor
T3 construct: a biophysical SPR assay was established using full-length RSV L+P complex; Twin-Strep-tag (N); made in house; host or cells: Sf9 insect cells (baculovirus)
Method: as §1, §2

[15] = target: T1, RSV L+P; assay: De novo RNA synthesis assay (TrC-14, +3 site); type: biochemical; details: TrC-14 template
Method: The reaction was quenched by an equal volume of gel loading buffer consisting of 90% formamide and 50 mM EDTA. Samples were heated to 95°C for 5 min, resolved on a 22.5% polyacrylamide urea sequencing gel at 80 W, and then transferred to Whatman cellulose chromatography paper (Millipore Sigma). The gel was dried for 1 h on a gel dryer (Bio-Rad), exposed to a phosphor screen, and imaged using a Typhoon phosphorimager (GE Healthcare).

[16] = system: RSV replicon in APC-126 cells; assay: APC-126 minireplicon assay; type: cell-based; details: human respiratory syncytial virus, APC-126, 72 h
Method: as §4

[17] = Metabolic stability in liver microsomes; details: in vitro intrinsic clearance in human liver microsomes, n = 1
[18] = system: RSV-A/Long; assay: microbe, parasite or virus in culture; type: cell-based; details: human respiratory syncytial virus, HeLa cells, RT-qPCR
[19] = target: T1, RSV L+P; assay: SPR assay; type: binding; details: 25°C
Method: A Biacore Series S SA (Cytiva) chip is first derivatized by a 60 s injection of 50 µg/mL Tris NTA-biotin (synthesized in-house). The chip was further conditioned by a 60 s injection of 350 mM EDTA (Cytiva, 28995043) followed by a 60 s injection of 0.5 mM NiCl2 (Cytiva, 28995043). Purified human, recombinant His-tagged RSV L+P protein (C-terminal 8× His) was captured via a 1,200 s injection at 30 µg/mL to obtain immobilization levels of 8,000–9,000 RU. The surface was then blocked with a 60 s injection of 100 µM PEG-biotin (Thermo Scientific). The experiments were performed at 25°C, using a Biacore 8K+ (Cytiva) and running buffer: 10 mM HEPES, 300 mM NaCl, 10 mM MgCl2, pH 7.4, 5% glycerol, 2% DMSO, 0.005% p20, 0.5 mM TCEP. […] Reference and buffer-blank subtracted data were analyzed with the Biacore 8K Insight Evaluation Software and fit to a 1:1 Langmuir model to obtain KD values and binding kinetics.

[20] = HeLa cytotoxicity assay (ATPlite); details: human, HeLa cells
Method: as §3

[21] = system: HeLa cells; assay: HeLa cytotoxicity assay (ATPlite); details: HeLa cells
Method: as §3

T3 sequence (P28887 whole entry, the tested form may be a part): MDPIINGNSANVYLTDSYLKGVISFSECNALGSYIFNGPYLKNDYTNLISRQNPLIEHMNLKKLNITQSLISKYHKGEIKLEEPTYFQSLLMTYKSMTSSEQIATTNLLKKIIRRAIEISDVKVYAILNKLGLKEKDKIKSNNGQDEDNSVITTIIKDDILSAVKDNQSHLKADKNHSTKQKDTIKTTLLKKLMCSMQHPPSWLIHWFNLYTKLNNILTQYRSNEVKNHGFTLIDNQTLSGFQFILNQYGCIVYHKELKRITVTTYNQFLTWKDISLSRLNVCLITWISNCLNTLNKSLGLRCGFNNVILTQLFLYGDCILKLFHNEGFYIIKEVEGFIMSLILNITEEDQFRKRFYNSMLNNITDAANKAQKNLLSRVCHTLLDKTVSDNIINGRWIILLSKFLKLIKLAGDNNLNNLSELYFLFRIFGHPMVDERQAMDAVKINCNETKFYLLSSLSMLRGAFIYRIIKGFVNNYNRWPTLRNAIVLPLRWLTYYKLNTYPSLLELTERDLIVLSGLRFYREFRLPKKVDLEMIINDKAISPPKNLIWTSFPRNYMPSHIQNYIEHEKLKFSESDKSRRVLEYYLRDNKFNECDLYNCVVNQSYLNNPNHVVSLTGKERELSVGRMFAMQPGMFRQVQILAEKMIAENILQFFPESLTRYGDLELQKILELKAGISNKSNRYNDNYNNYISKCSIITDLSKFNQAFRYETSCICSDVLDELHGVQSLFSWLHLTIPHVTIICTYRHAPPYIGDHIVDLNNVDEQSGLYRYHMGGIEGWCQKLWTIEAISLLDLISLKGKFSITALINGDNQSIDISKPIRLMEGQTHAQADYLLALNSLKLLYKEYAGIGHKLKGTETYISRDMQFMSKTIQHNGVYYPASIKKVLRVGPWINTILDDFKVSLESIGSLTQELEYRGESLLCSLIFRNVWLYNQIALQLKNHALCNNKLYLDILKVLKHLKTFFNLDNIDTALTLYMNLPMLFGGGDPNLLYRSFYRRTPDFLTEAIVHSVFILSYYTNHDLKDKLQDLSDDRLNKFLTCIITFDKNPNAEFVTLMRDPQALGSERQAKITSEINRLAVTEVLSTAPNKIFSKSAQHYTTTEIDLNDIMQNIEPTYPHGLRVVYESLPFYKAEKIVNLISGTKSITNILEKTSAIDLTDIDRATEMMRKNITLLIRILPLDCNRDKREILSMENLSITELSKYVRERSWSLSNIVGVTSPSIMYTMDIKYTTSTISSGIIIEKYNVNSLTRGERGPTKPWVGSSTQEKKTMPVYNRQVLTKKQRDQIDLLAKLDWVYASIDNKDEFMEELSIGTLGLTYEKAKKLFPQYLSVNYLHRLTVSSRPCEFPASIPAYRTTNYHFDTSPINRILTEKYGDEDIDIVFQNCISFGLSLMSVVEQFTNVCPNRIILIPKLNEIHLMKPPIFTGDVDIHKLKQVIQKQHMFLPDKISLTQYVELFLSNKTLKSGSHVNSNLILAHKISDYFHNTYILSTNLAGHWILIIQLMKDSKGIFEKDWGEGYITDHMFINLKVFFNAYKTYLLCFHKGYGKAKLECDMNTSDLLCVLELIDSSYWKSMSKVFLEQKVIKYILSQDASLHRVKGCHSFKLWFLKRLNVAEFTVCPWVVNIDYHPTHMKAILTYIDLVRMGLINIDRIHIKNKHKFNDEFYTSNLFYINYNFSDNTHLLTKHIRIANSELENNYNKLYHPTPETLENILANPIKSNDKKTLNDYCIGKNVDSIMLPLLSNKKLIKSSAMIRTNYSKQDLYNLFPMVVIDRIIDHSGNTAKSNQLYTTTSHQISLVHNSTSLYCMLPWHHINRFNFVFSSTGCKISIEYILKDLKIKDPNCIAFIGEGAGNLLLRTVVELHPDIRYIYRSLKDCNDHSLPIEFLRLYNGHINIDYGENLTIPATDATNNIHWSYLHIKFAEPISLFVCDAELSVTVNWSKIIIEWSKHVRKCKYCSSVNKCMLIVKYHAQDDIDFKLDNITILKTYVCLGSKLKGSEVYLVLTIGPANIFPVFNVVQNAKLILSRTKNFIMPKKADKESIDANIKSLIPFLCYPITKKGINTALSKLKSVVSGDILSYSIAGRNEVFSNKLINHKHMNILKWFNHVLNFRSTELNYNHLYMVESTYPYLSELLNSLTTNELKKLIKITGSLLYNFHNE
T3 sequence (P03421 whole entry, further chain, the tested form may be a part): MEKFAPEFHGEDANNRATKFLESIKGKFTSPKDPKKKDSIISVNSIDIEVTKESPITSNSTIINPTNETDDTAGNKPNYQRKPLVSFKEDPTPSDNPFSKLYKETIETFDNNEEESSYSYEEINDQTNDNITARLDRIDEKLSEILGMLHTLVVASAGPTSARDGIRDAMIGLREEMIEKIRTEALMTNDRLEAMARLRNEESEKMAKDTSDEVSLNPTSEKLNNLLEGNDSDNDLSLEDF
T1 sequence (P03421 whole entry): as the sequence (P03421 whole entry, further chain, the tested form may be a part) above
T1 sequence (P28887 whole entry): as the sequence (P28887 whole entry, the tested form may be a part) above

Structure (SMILES): CN1C(=O)C2(CCN(c3cnc(C#N)c(Cl)c3)CC2)c2cc(Br)ccc21 [Compound 22, 5-(5-bromo-1-methyl-2-oxospiro[indoline-3,4'-piperidin]-1'-yl)-3-chloropicolinonitrile]
- EC50 [1]: 2700 nM
- α (mixed model inhibition) with respect to UTP ([2]; mixed noncompetitive/uncompetitive): 0.33 ± 0.27
- α with respect to TrC-25 RNA template ([2]; noncompetitive): 1.1 ± 0.6
- SPR ka in the presence of JNJ-7184 [3]: 140000 M⁻¹ s⁻¹
- SPR kd in the presence of JNJ-7184 [3]: 0.0725 s⁻¹
- Kd ([3]; read-out: SPR KD in the presence of JNJ-7184): 520 nM
- Yonetani-Theorell interaction constant γ ([4]; 22 titrated with capping domain inhibitor compound 23): 1.1 ± 0.2
- Yonetani-Theorell interaction constant γ ([4]; 22 titrated with connector domain inhibitor compound 24): 0.88 ± 0.72
- inhibition of primer extension, TrC-14 template [5]: inhibited
- EC50 [6]: 2380 nM
- EC50 ([6]; human respiratory syncytial virus, HeLa, 72 h): 2280 nM
- Emax ([6]; human respiratory syncytial virus, read-out: Cellular Emax): 94%
- CC50 at 72 h [7]: > 50000 nM
- EC50 [8]: 1100 nM
- CC50 ([9]; line RSV-A/A2): > 50000 nM
- CC50 ([9]; line RSV-A/Long): > 50000 nM
- CC50 ([9]; line RSV-B/Wash/18537): > 50000 nM
- CC50 [10]: > 50000 nM
- IC50 ([11]; full-length RSV L+P, n ≥ 2, read-out: Biochemical IC50): 270 nM
- Emax ([11]; read-out: Biochemical Emax): 105%
- EC50 [12]: 1000 nM
- IC50 [13]: > 100000 nM
- SPR ka in the presence of JNJ-8003 [14]: 119000 M⁻¹ s⁻¹
- SPR kd in the presence of JNJ-8003 [14]: 0.0628 s⁻¹
- Kd ([14]; read-out: SPR KD in the presence of JNJ-8003): 530 nM
- maximal inhibition of pppGA formation ([15]; +3 site): 85%
- IC50 ([15]; +3 site, read-out: IC50 of de novo pppGA (pppGpA) formation): 290 nM
- IC50 ([15]; IC50 of 11-mer product): 480 nM
- maximal inhibition of 11-mer product [15]: 71%
- EC50 [16]: 2220 nM
- HLM CLint [17]: 10.9 µL/min/mg microsomal protein
- EC50 [18]: 970 nM
- SPR kd ([19]; immobilized RSV L+P): 0.0609 s⁻¹
- Kd ([19]; immobilized full-length RSV L+P): 470 nM
- CC50 at 72 h [20]: > 50000 nM
- Cytotoxicity Emax [21]: 12.8%
